The target in series [1] is T1, AKT3 (Homo sapiens, UniProt Q9Y243).
T1 construct: purchased Invitrogen PV3185
Nature of the series: AKT3 enzymatic assay (KinEASE-STK S3 HTRF kit). The format is biochemical. The settings on record: 0.4 nM enzyme, 45 μM ATP, 2 μM S3-biotin. The protocol:
The following methods were used to determine the inhibitory effect of the compounds of the present disclosure on the kinase activity of AKT1/AKT2/AKT3 in vitro. The experimental methodology is briefly described as follows:
The enzyme activity of AKT1 (Invitrogen, P2999), AKT2 (Invitrogen, PV3184) and AKT3 (Invitrogen, PV3185) was determined using a KinEASE-STK S3 kit (Cisbio, 62ST3PEC). Test compounds were each first subjected to 3-fold gradient dilution with DMSO from 500 μM to obtain a total of 11 concentrations. The 5× buffer in the kit was diluted to 1×buffer, and DTT (Sigma, 43816-10ML) and MgCl2 were added to make the buffer contain 1 mM DTT and 5 mM MgCl2. Compounds were each subjected to 20-fold dilution with 1× buffer for later use. The enzyme solution was obtained by diluting the AKT1/AKT2/AKT3 kinase with 1× buffer. ATP (Invitrogen, PV3227) and S3-biotin in the kit were diluted with 1× buffer to obtain a substrate-ATP mixture solution for later use. 2 μL of the enzyme solution and 4 μL of the compound solution were added to each well of a 384-well plate (Corning, 4513), and the mixture was incubated at room temperature for 30 min, followed by addition of 4 μL of the ATP and S3-biotin mixture solution. The resulting mixture was incubated at room temperature for 90 min. AKT1 enzyme reaction conditions were a final concentration of 2 nM for enzyme, a final concentration of 10 μM for ATP, and a final concentration of 2 μM for S3-biotin. AKT2 enzyme reaction conditions were a final concentration of 5 nM for enzyme, a final concentration of 10 μM for ATP, and a final concentration of 2 μM for S3-biotin. AKT3 enzyme reaction conditions were a final concentration of 0.4 nM for enzyme, a final concentration of 45 μM for ATP, and a final concentration of 2 μM for S3-biotin. The detection solution was prepared by diluting the S3-cryptate and streptavidin-XL665 with the detection buffer in the kit. After incubation, 10 μL of the detection solution was added to each well, the final concentration of S3-cryptate was a concentration obtained by 200-fold dilution of the stock solution, and the final concentration of streptavidin-XL665 was 125 nM. The mixture was incubated at room temperature for 60 min, values of signals emitted at […] and 620 nm after excitation at 337 nm were measured by using an HTRF module of a multi-functional microplate detector (BMG Labtech, PHERAstar FS), and the reading ratio was multiplied by 10,000 to obtain a specific value. Dose-response curves were drawn according to the concentration of the compounds and the specific values by using Graphpad Prism software, and the IC50 values for the inhibitory activity of the compounds were calculated.
For orientation: TR-FRET usually uses a lanthanide donor and a delayed reading to cut background.

Series [2] is described as follows: Pharmacokinetic study in nude mice, intragastric administration. The format is in vivo. The settings on record: female, mouse, po, Balb/c nude mice, i.g., plasma; for Vd/F: read-out: Apparent volume of distribution Vz/F; for AUC(0-t): read-out: Area under curve AUC0-t; for CL/F: read-out: Clearance CL/F; for half-life: read-out: Half-life T1/2 (converted); for Cmax: read-out: Plasma concentration Cmax; for MRT: read-out: Residence time MRT. The protocol: The drug concentration in the plasma of the test animals (Balb/c nude mice) at different time points after intragastric administration (i.g.) of the test compounds was determined by using an LC/MS/MS method. The pharmacokinetic performance of the compounds of the present disclosure in nude mice was studied and their pharmacokinetic profile was evaluated.
18 Balb/c nude mice, female, divided into 2 groups and purchased from Vital River Laboratory Animal Technology Co., Ltd.
A certain amount of compound was weighed out, 99.8% 0.5% methylcellulose was added into the compound, and then 0.2% Tween was added. The mixture was subjected to ultrasonic treatment to obtain a suspension, which was stirred for administration.
The nude mice were subjected to intragastric administration, the administration dose was 50 mg/kg or 100 mg/kg, and the administration volume was 0.2 mL/10 g.
The test compound was administered intragastrically to the nude mice, and 0.1 mL of blood was collected before administration and 0.25 h, 0.5 h, 1.0 h, 2.0 h, 4.0 h, 6.0 h, 8.0 h, 11.0 h and 24.0 h after administration. The blood was placed in an EDTA-K2 anticoagulation tube and centrifuged at 10,000 rpm for 1 min (4° C.), and plasma was separated out within 1 h and then stored at −20° C. for testing. The process from blood sampling to centrifugation was performed under an ice bath.
The content of the test compounds at different concentrations in the nude mice plasma after intragastric administration was determined: 20 μL of nude mouse plasma at each time point after administration was mixed with 50 μL of internal standard solution (camptothecin, 100 ng/mL) and 200 μL of acetonitrile, and the mixture was vortexed for 5 min and centrifuged for 10 min at 3700 rpm. 1 μL of supernatant of the plasma sample was taken for LC/MS/MS analysis.

Each structure is given as a SMILES string. Where two headings read alike, the source gives them in different places.

T1 sequence (Q9Y243 whole entry): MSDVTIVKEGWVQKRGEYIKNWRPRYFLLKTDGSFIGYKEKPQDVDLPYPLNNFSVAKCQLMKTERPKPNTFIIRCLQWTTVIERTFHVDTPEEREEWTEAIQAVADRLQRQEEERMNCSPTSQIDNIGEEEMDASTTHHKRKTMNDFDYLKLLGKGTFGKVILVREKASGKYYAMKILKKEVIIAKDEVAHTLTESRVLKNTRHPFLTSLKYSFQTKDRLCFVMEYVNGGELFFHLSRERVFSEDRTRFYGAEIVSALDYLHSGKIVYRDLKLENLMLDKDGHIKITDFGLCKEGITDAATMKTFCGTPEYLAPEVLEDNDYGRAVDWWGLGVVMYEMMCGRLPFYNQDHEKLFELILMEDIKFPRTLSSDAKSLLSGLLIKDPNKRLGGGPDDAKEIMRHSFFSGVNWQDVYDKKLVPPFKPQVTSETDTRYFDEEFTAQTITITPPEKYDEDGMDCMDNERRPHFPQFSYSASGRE

As to `CC(C)NC[C@@H](C(=O)N1[C@@H]2CC[C@H]1CN(c1ncnc3c1[C@H](C)C[C@H]3O)C2)c1ccc(Cl)cc1` [Example 4, (S)-2-(4-chlorophenyl)-1-((1R,5S)-3-((5R,7R)-7-hydroxy-5-methyl-6,7-dihydro-5H-cyclopenta[d]pyrimidin-4-yl)-3,8-diazabicyclo[3.2.1]octan-8-yl)-3-(isopropylamino)propan-1-one], the IC50 (as a rule, the concentration that gives 50% inhibition) in series [1] was found to be 55.6 nM. Further, in series [2] (50 mg/kg), the Vd/F was found to be 8.71 L/kg, the AUC(0-t) was 14300 ng·h/mL, the CL/F is 57.5 mL/min/kg and the half-life is 1.8 h. In series [2] (50 mg/kg), the Cmax was found to be 4130 ng/mL and the mean residence time (MRT) (commonly the average time that molecules of a dose stay in the body) turned out to be 3 h. Besides, in series [2] (100 mg/kg), the Vd/F is 13.2 L/kg, the AUC(0-t) was 27500 ng·h/mL, the CL/F is 60.5 mL/min/kg and the half-life was 2.5 h. Further, in series [2] (100 mg/kg), the Cmax was determined as 5500 ng/mL and the MRT is 3.7 h.

In turn, `CC(C)NC[C@@H](C(=O)N1C2CCC1CN(c1ncnc3c1C(C)(C)C(=O)N3)C2)c1ccc(Cl)cc1` [Example 2] came in with a 50% inhibitory concentration (IC50) in series [1] of 2 nM. Also, in series [2] (50 mg/kg), the Vd/F is 8.03 L/kg, the AUC(0-t) amounted to 20200 ng·h/mL, the CL/F turned out to be 41.2 mL/min/kg and the half-life is 2.3 h. Moreover, in series [2] (50 mg/kg), the Cmax is 3000 ng/mL and the MRT stood at 4.9 h. Besides, in series [2] (100 mg/kg), the Vd/F was found to be 16.2 L/kg, the AUC(0-t) came out at 36000 ng·h/mL, the CL/F was determined as 45.4 mL/min/kg and the half-life was 4.1 h. Besides, in series [2] (100 mg/kg), the Cmax was 3500 ng/mL and the MRT is 6.7 h.

The values above are taken from US20230148417A1, “FUSED BICYCLIC DERIVATIVE, PREPARATION METHOD THEREFOR, AND PHARMACEUTICAL USE THEREOF” (Jiangsu Hengrui Pharmaceuticals Co., Ltd., priority 2020, published 2023).
